# Where a name gives a salt, the structure may show the parent alone.
# Tested on: mosquitoes
# Experiment: Attractive toxic sugar assay
# Assay type: in vivo
# Conditions: after three days, dead / total mosquitoes
# Protocol: Experiments were carried out to examine the lethality of compounds of the present invention using an attractive toxic sugar assay. These experiments were carried out in 6 groups according to Table 3. […] The experimental room was conditioned with 75% humidity or higher. Experimental cages were prepared by adding paper towels to the cage bottoms. Cages of mosquitoes were collected (about 25 males and about 25 females per cage), one cage for each sugar bait being tested with an extra cage to use as a sucrose-only control. […] Feeding cups were prepared with 10 ml of experimental sugar bait to a cup. In some experiments, blue food coloring was added to verify sugar consumption in the frass. Bait cups were mixed by gentle swirling and wicks were added through the top. Control bait cups received about 10 ml of prepared 10% sucrose solution (except where otherwise indicated). Heat, humidity as well as humidifier water content were checked each day. Cages were examined daily for dead mosquitoes. The number of dead mosquitoes per gender was recorded each day. Frass content was examined daily and compared with that of sucrose control. After three days, final observations were made and live mosquitoes were removed from each experimental cage and placed into cups for examination under the dissecting scope to determine whether or not female mosquitoes had fed. Once feeding females had been determined for populations from each cage, cups were frozen and discarded. Dead mosquitoes in each cage were counted and the sex of each determined. The relative frass content per cage was compared to that of the sucrose control cage. […] Percent (%) lethality was calculated for each treatment group by dividing the total (male and female) number of dead mosquitoes by the total number of mosquitoes for each.
# [1] = sugar conc. 0.10%, about 25 male and 25 female mosquitoes per cage
Molecule,% Lethality [1],% Lethality (sugar conc. 0.50%)
n-acetyl allolactosamine,44%,–
sucrose octasulfate aluminum complex,39.6%,–
"OC[C@H]1O[C@@H](O[C@H]2O[C@H](CO)[C@@H](O)[C@H](O)[C@H]2O)[C@H](O)[C@@H](O)[C@@H]1O [alpha,beta-trehalose]",56.2%,–
O.O.O.O.O.OC[C@H]1O[C@H](OC[C@H]2O[C@H](O[C@]3(CO)O[C@H](CO)[C@@H](O)[C@@H]3O)[C@H](O)[C@@H](O)[C@@H]2O)[C@H](O)[C@@H](O)[C@H]1O [D-(+)-raffinose pentahydrate],38.8%,–
CC1(C)[C@@H](O[C@H]2O[C@H](C(=O)O)[C@@H](O)[C@H](O)[C@H]2O[C@@H]2O[C@H](C(=O)O)[C@@H](O)[C@H](O)[C@H]2O)CC[C@]2(C)[C@H]3C(=O)C=C4[C@@H]5C[C@@](C)(C(=O)O)CC[C@]5(C)CC[C@@]4(C)[C@]3(C)CC[C@@H]12 [glycyrrhizic acid ammonium salt],68.3%,–
OC[C@H]1O[C@H](OCC2O[C@@H](O)[C@H](O)[C@@H](O)[C@@H]2O)[C@H](O)[C@@H](O)[C@H]1O (stereo partly drawn) [melibiose],64.4%,–
C[C@@H]1O[C@@H](OC[C@H]2O[C@@H](Oc3c(-c4ccc(O)c(O)c4)oc4cc(O)cc(O)c4c3=O)[C@H](O)[C@@H](O)[C@@H]2O)[C@H](O)[C@H](O)[C@H]1O [rutin hydrate],58%,45%
CO[C@@H]1O[C@H](CO)[C@H](O)[C@H](O)[C@H]1O [methyl-beta-D-galactopyranoside],65.9%,43%
O=C(CO)[C@@H](O[C@H]1O[C@H](CO)[C@@H](O)[C@H](O)[C@H]1O)[C@H](O)[C@H](O)CO [D-(+)-turanose],66%,29%
